Laboratory results: patent US20240109836A1, “NON-HALL[…] ANALOGS FOR TREATMENT OF NEUROLOGICAL AND PSYCHIATRIC DISORDERS” (The Trustees of Columbia University in the City of New York, priority 2021, published 2024)

Legend:
[1] = target: T1, Potassium Channel hERG (Homo sapiens, UniProt Q12809); assay: SafetyScreen44 (Panlabs) panel; type: binding; conditions: 10 μM
T1 construct: Panlabs (SafetyScreen44 panel)
Description: (§1) Other targets included with less than ≥50% stimulation at a concentration of 10 μM: Acetylcholinesterase, COX-1, COX-2, MAO-A, PDE3A, PDE4D2, Protein Tyrosine Kinase (LCK), Adenosine A2A, Adrenergic α1A, Adrenergic α2A, Adrenergic β1, Adrenergic β2, Androgen (Testosterone), Calcium Channel L-Type (Dihydropyridine), CB1, CB2, Cholecystokinin CCK1 (CCKA), Dopamine D1, Dopamine D2S, Endothelin ETA, GABAA (Flunitrazepam, Central), Glucocorticoid, Glutamate-NMDA (Agonism), Histamine H1, Histamine H2, Muscarinic M1, Muscarinic M2, Muscarinic M3, Nicotinic Acetylcholine α4β2, (Cytisine), DOP, KOP, MOP, Potassium Channel [KA], Potassium Channel hERG, Serotonin (5-Hydroxytryptamine) 5-HT1A, 5-HT1B, 5-HT3, Na-channel site 2, DAT, NET, SERT, Vasopressin V1A

[2] = target: T2, Adrenergic α2A (Homo sapiens, UniProt P08913); assay: SafetyScreen44 (Panlabs) panel; type: binding; conditions: 10 μM
T2 construct: Panlabs (SafetyScreen44 panel)
T2 sequence (P08913 whole entry): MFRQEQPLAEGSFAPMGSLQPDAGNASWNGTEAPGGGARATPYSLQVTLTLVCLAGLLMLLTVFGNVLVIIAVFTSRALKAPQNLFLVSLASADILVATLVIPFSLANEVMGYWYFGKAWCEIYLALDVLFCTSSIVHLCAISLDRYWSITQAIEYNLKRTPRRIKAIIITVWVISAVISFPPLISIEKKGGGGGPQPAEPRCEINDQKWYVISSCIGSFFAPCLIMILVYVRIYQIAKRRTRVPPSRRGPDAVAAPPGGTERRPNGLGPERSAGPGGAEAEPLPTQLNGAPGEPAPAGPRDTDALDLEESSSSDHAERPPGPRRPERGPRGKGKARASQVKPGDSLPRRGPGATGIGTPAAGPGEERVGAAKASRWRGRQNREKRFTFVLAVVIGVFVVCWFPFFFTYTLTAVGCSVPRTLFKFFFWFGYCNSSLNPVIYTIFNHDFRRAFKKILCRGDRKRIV
Description: as §1

[3] = target: T3, SERT (Homo sapiens, UniProt P31645); assay: SafetyScreen44 (Panlabs) panel; type: binding; conditions: 10 μM
T3 construct: Panlabs (SafetyScreen44 panel)
Description: as §1

[4] = target: T4, Adrenergic β2 (Homo sapiens, UniProt P07550); assay: SafetyScreen44 (Panlabs) panel; type: binding; conditions: 10 μM
T4 construct: Panlabs (SafetyScreen44 panel)
T4 sequence (P07550 whole entry): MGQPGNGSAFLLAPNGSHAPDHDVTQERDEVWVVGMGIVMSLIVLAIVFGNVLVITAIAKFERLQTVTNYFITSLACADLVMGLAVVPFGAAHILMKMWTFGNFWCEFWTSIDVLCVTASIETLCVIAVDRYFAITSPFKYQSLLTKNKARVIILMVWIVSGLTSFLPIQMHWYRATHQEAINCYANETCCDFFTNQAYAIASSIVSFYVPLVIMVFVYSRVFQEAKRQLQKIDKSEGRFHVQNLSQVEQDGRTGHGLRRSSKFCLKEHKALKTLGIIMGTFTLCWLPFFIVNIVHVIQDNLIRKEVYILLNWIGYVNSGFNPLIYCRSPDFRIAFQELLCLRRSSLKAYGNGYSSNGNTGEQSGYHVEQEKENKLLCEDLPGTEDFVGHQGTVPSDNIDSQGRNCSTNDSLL
Description: as §1

[5] = target: T5, Cholecystokinin CCK1 (CCKA) (Homo sapiens, UniProt P32238); assay: SafetyScreen44 (Panlabs) panel; type: binding; conditions: 10 μM
T5 construct: Panlabs (SafetyScreen44 panel)
T5 sequence (P32238 whole entry): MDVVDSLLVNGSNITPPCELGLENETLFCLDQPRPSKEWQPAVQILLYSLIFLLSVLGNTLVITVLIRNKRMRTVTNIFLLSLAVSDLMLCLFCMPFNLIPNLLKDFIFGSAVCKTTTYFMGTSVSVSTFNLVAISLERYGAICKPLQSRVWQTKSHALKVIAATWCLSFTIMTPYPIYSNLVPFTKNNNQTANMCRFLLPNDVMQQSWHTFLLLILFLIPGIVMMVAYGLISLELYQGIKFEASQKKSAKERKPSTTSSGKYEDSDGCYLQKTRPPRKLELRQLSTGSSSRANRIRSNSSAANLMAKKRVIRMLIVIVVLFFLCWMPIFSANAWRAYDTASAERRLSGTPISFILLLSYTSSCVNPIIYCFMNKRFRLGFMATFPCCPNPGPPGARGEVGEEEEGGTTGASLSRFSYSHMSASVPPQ
Description: as §1

[6] = target: T6, Muscarinic M2 (Homo sapiens, UniProt P08172); assay: SafetyScreen44 (Panlabs) panel; type: binding; conditions: 10 μM
T6 construct: Panlabs (SafetyScreen44 panel)
T6 sequence (P08172 whole entry): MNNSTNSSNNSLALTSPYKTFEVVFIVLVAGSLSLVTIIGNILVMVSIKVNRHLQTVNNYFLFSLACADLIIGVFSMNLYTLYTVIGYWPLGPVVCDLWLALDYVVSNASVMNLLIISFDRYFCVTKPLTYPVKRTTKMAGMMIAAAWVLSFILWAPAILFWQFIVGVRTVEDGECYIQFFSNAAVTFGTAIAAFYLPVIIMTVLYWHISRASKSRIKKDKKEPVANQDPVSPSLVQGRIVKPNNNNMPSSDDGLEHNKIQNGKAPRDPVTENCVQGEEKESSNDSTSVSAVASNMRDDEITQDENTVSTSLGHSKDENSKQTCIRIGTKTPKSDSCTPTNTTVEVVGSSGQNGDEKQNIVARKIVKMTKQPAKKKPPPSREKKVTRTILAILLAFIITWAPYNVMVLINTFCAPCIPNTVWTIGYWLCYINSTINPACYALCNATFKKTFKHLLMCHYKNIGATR
Description: as §1

[7] = test system: Glutamate-NMDA (Agonism); assay: SafetyScreen44 (Panlabs) panel; type: binding; conditions: 10 μM
Description: as §1

[8] = target: T7, Nicotinic Acetylcholine α4β2, (Cytisine) (Homo sapiens, UniProt P17787+P43681); assay: SafetyScreen44 (Panlabs) panel; type: binding; conditions: 10 μM
T7 construct: Panlabs (SafetyScreen44 panel)
Description: as §1

[9] = target: T8, Endothelin ETA (Homo sapiens, UniProt P25101); assay: SafetyScreen44 (Panlabs) panel; type: binding; conditions: 10 μM
T8 construct: Panlabs (SafetyScreen44 panel)
T8 sequence (P25101 21-427): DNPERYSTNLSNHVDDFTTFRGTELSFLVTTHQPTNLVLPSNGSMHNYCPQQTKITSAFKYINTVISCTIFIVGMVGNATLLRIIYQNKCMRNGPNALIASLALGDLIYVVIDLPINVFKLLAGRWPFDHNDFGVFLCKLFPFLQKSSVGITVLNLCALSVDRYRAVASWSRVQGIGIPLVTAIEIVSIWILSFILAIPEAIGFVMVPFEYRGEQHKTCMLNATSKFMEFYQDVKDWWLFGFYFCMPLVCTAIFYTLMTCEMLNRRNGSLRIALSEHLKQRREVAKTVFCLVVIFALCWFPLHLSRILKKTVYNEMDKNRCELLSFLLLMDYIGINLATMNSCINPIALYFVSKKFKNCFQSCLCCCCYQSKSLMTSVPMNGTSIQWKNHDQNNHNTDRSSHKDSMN
Description: as §1

[10] = target: T9, Histamine H1 (Homo sapiens, UniProt P35367); assay: SafetyScreen44 (Panlabs) panel; type: binding; conditions: 10 μM
T9 construct: Panlabs (SafetyScreen44 panel)
T9 sequence (P35367 whole entry): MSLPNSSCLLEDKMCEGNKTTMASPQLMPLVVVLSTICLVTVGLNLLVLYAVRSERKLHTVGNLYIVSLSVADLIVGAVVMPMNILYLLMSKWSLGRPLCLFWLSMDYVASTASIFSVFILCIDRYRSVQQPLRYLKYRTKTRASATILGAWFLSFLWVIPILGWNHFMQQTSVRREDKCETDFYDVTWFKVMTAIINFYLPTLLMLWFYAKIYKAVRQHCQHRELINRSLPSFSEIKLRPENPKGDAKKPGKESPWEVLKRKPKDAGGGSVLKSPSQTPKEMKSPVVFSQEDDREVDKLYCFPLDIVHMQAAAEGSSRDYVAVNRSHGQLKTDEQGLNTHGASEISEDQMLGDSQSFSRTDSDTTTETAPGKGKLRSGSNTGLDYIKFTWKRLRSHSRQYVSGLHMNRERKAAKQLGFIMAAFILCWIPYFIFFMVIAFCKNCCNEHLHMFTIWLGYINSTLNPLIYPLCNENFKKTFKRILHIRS
Description: as §1

[11] = test system: Na-channel site 2; assay: SafetyScreen44 (Panlabs) panel; type: binding; conditions: 10 μM
Description: as §1

[12] = target: T10, Muscarinic M3 (Homo sapiens, UniProt P20309); assay: SafetyScreen44 (Panlabs) panel; type: binding; conditions: 10 μM
T10 construct: Panlabs (SafetyScreen44 panel)
Description: as §1

[13] = target: T11, Serotonin (5-Hydroxytryptamine) 5-HT1A (Homo sapiens, UniProt P08908); assay: SafetyScreen44 (Panlabs) panel; type: binding; conditions: 10 μM
T11 construct: Panlabs (SafetyScreen44 panel)
Description: as §1

[14] = target: T12, DAT (Homo sapiens, UniProt Q01959); assay: SafetyScreen44 (Panlabs) panel; type: binding; conditions: 10 μM
T12 construct: Panlabs (SafetyScreen44 panel)
Description: as §1

[15] = target: T13, Adrenergic α1A (Rattus norvegicus, UniProt P43140); assay: SafetyScreen44 (Panlabs) panel; type: binding; conditions: 10 μM
T13 construct: Panlabs (SafetyScreen44 panel)
T13 sequence (P43140 whole entry): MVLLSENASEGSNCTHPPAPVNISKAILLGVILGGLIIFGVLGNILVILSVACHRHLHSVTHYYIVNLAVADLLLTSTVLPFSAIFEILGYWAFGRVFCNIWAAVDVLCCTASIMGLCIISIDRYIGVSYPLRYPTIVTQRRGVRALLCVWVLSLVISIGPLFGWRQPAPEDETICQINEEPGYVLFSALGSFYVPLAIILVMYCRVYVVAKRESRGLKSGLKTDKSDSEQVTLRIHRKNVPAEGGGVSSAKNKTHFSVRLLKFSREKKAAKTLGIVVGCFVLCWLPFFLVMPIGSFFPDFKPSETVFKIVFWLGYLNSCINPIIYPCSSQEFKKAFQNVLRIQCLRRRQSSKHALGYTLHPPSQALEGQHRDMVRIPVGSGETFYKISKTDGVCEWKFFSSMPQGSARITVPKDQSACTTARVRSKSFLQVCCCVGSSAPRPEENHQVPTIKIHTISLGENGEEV
Description: as §1

[16] = target: T14, Dopamine D1 (Homo sapiens, UniProt P21728); assay: SafetyScreen44 (Panlabs) panel; type: binding; conditions: 10 μM
T14 construct: Panlabs (SafetyScreen44 panel)
Description: as §1

[17] = target: T15, DOP (Homo sapiens, UniProt P41143); assay: SafetyScreen44 (Panlabs) panel; type: binding; conditions: 10 μM
T15 construct: Panlabs (SafetyScreen44 panel)
Description: as §1

[18] = target: T16, Vasopressin V1A (Homo sapiens, UniProt P37288); assay: SafetyScreen44 (Panlabs) panel; type: binding; conditions: 10 μM
T16 construct: Panlabs (SafetyScreen44 panel)
T16 sequence (P37288 whole entry): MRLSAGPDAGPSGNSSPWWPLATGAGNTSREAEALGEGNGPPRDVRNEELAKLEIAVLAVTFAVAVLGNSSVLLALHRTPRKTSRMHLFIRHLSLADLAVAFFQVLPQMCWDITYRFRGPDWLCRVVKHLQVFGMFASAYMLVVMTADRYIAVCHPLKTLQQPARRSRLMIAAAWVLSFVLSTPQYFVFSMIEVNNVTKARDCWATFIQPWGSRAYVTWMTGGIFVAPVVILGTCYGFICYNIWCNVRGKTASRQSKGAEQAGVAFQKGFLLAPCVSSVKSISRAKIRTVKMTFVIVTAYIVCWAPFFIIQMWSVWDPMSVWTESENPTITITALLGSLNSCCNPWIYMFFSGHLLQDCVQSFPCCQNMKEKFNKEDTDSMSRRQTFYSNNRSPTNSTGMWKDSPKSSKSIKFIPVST
Description: as §1

[19] = target: T17, 5-HT3 (Homo sapiens, UniProt P46098); assay: SafetyScreen44 (Panlabs) panel; type: binding; conditions: 10 μM
T17 construct: Panlabs (SafetyScreen44 panel)
Description: as §1

[20] = target: T18, Muscarinic M1 (Homo sapiens, UniProt P11229); assay: SafetyScreen44 (Panlabs) panel; type: binding; conditions: 10 μM
T18 construct: Panlabs (SafetyScreen44 panel)
Description: as §1

[21] = target: T19, CB2 (Homo sapiens, UniProt P34972); assay: SafetyScreen44 (Panlabs) panel; type: binding; conditions: 10 μM
T19 construct: Panlabs (SafetyScreen44 panel)
Description: as §1

[22] = target: T20, Dopamine D2S (Homo sapiens, UniProt P14416); assay: SafetyScreen44 (Panlabs) panel; type: binding; conditions: 10 μM
T20 construct: Panlabs (SafetyScreen44 panel)
Description: as §1

[23] = target: T21, Serotonin (5-Hydroxytryptamine) 5-HT2B (Homo sapiens, UniProt P41595); assay: SafetyScreen44 (Panlabs) panel, replacement of standard ligand; type: binding; conditions: hum
T21 construct: Panlabs (SafetyScreen44 panel)

[24] = Head twitch response assay; type: in vivo, Mice (C57bl/6J); conditions: mice, 1, 3, 10, and 30 mg/kg s.c., vs positive control DOI
Description: FIG. 2. […] N=5 mice in each cohort. […] Drugs were administered s.c.
Mice (C57bl/6J, 8-15 weeks, 26-33 g) were weighed and moved to the testing room 30 minutes prior to experimentation. Mice were administered the experimental compound at a selected dose s.c. and then immediately moved to a new cage. Before beginning the test, mice were allowed to remain in this cage for a set amount of time ranging 0-10 min based on the compound. The head twitch assay was performed by a trained observer watching the mouse for a 10 min duration and recording the total number of head twitches observed.
DOI was tested at the doses of 1, 3, 10 and 30 mg/kg (s.c., 5 mice per dose) and testing began immediately after administration of the compound. Ariadne (32), (29) and (38) were tested at the doses of 1, 3, 10, and 30 mg/kg (s.c., 5 mice per dose) and there was a 10 min interval between treatment and testing.

[25] = target: T22, Serotonin (5-Hydroxytryptamine) 5-HT2A (Homo sapiens, UniProt P28223); assay: SafetyScreen44 (Panlabs) panel, replacement of standard ligand; type: binding; conditions: hum
T22 construct: Panlabs (SafetyScreen44 panel)

T1 sequence (Q12809 whole entry): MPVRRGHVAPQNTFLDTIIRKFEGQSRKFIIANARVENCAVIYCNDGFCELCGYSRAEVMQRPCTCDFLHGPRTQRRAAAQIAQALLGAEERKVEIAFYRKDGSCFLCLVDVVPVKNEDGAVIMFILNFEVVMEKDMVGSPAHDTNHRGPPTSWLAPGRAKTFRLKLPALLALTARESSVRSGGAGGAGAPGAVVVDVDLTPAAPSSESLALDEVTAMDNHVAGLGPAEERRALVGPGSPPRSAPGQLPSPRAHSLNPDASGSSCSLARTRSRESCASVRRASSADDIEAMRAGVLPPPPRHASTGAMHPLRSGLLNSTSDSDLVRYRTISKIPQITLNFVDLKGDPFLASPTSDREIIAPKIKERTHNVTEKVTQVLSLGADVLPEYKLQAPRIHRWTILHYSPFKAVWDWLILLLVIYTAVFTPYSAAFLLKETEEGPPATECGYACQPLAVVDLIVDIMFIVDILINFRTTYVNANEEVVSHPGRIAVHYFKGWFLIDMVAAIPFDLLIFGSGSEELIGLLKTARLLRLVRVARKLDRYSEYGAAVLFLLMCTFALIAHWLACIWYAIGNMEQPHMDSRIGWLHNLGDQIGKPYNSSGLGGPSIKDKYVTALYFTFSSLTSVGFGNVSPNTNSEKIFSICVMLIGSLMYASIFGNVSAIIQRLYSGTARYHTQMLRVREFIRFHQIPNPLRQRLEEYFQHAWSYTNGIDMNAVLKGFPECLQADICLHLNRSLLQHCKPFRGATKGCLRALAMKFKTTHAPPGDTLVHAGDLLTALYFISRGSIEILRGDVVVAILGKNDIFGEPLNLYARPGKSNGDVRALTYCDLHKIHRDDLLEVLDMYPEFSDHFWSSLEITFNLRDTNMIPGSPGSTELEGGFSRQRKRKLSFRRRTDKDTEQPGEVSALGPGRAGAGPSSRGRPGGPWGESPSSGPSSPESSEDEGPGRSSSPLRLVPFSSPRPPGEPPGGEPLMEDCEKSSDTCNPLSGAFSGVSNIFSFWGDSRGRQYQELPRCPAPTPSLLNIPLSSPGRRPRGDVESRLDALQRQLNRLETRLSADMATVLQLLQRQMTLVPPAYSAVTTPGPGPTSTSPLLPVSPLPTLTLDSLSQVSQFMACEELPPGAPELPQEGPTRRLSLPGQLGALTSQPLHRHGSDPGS

## CCC(N)Cc1cc(OC)c(C)cc1OC (stereo not shown) [Ariadne (32), 1-(2,5-dimethoxy-4-methylphenyl)butan-2-amine]
[1]
  % stimulation: < 50%
[2]
  % stimulation: < 50%
[3]
  % stimulation: < 50%
[4]
  % stimulation: < 50%
[5]
  % stimulation: < 50%
[6]
  % stimulation: < 50%
[7]
  % stimulation: < 50%
[8]
  % stimulation: < 50%
[9]
  % stimulation: < 50%
[10]
  % stimulation: < 50%
[11]
  % stimulation: < 50%
[12]
  % stimulation: < 50%
[13]
  % stimulation: < 50%
[14]
  % stimulation: < 50%
[15]
  % stimulation: < 50%
[16]
  % stimulation: < 50%
[17]
  % stimulation: < 50%
[18]
  % stimulation: < 50%
[19]
  % stimulation: < 50%
[20]
  % stimulation: < 50%
[21]
  % stimulation: < 50%
[22]
  % stimulation: < 50%
[23]
  inhibition at 10 µM: 72%
[24]
  psychedelic activity (number of head twitches in a 10-min period): lower psychedelic activity
[25]
  inhibition at 10 µM: 72%
